From ChEMBL document CHEMBL1138930, “Discovery of novel triazole-based opioid receptor antagonists” (J Med Chem, 2006)

Columns and labels:
[1] = target: Mu-type opioid receptor (Mus musculus) (UniProt P42866); experiment: Inhibition of (-)-[9-3H]bremazocine binding to mu opioid receptor expressed in HEK293 cells
[2] = target: Mu-type opioid receptor (Mus musculus) (UniProt P42866); experiment: Inhibition of (-)-[9-3H]bremazocine binding to mu opioid receptor at 10 uM
[3] = target: Kappa-type opioid receptor (Rattus norvegicus) (UniProt P34975); experiment: Inhibition of (-)-[9-3H]bremazocine binding to kappa opioid receptor expressed in HEK293 cells
[4] = target: Delta-type opioid receptor (Mus musculus) (UniProt P32300); experiment: Inhibition of (-)-[9-3H]bremazocine binding to delta opioid receptor expressed in HEK293 cells
[5] = target: Delta-type opioid receptor (Mus musculus) (UniProt P32300); experiment: Inhibition of (-)-[9-3H]bremazocine binding to delta opioid receptor at 10 uM
[6] = target: Kappa-type opioid receptor (Rattus norvegicus) (UniProt P34975); experiment: Inhibition of (-)-[9-3H]bremazocine binding to kappa opioid receptor at 10 uM
[7] = test system: Delta and mu opioid receptors (Mus musculus); experiment: Selectivity for delta opioid receptor over mu opioid receptor
[8] = test system: Delta (Mus musculus) and kappa (Rattus norvegicus) opioid receptors; experiment: Selectivity for delta opioid receptor over kappa opioid receptor

Delta-type opioid receptor (Mus musculus), sequence (P32300 whole entry, looked up): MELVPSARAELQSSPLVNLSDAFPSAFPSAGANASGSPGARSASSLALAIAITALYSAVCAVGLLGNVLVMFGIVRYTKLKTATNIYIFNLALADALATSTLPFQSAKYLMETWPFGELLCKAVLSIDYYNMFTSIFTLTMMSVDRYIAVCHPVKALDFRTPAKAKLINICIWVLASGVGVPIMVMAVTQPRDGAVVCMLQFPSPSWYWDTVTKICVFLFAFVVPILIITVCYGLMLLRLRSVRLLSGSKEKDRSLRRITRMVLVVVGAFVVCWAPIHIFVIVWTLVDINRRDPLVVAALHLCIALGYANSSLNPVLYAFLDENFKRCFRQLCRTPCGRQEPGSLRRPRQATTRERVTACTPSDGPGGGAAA
Mu-type opioid receptor (Mus musculus), sequence (P42866 whole entry, looked up): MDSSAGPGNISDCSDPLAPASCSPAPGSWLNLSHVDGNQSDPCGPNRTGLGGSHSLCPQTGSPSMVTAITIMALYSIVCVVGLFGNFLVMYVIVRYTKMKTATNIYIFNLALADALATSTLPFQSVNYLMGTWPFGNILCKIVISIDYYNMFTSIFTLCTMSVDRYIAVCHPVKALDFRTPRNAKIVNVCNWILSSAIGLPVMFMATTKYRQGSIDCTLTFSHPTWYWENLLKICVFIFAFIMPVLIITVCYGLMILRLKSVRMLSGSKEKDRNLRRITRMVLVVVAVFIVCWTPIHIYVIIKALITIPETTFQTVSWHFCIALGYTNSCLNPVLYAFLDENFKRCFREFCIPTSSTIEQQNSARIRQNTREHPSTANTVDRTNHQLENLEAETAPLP
Kappa-type opioid receptor (Rattus norvegicus), sequence (P34975 whole entry, looked up): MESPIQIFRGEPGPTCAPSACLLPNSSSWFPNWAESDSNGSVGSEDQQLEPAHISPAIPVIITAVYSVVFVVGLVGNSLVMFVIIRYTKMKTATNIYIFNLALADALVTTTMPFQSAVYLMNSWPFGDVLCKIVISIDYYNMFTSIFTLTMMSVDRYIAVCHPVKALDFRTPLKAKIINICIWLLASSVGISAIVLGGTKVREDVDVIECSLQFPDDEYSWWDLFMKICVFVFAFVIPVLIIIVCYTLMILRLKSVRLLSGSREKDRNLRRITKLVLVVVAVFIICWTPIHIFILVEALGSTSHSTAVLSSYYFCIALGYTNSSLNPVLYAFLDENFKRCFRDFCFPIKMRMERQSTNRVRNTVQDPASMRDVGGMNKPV

Row | SMILES | Ki [1] [µM] | inhibition [2] [%] | Ki [3] [µM] | Ki [4] [µM] | inhibition [5] [%] | inhibition [6] [%] | Selectivity ratio [7] | Selectivity ratio [8]
1 | COc1cccc(-n2c(-c3ccc(C(C)(C)C)cc3)nnc2N(C)C)c1 | > 10 | 50 | > 10 | > 10 | 28 | 3 | – | –
2 | COc1cccc(-n2cnnc2-c2cccc(C(C)(C)C)c2)c1 | – | – | > 10 | – | – | 5 | – | –
3 | CN(C)CCc1nnc(-c2ccc(C(C)(C)C)cc2)n1-c1cccc(O)c1 | > 10 | 23 | > 10 | 0.9 | 90 | 19 | – | –
4 | CC(C)(C)c1cccc(-c2nncn2-c2cccc(O)c2)c1 | 0.85 | 78 | 1.5 | 0.23 | 91 | 66 | 3.7 | 6.52
5 | COc1cccc(-n2cnnc2-c2ccc(C(C)(C)C)cc2)c1 | > 10 | 9 | > 10 | – | – | 8 | – | –
6 | CN(C)c1nnc(-c2ccc(C(C)(C)C)cc2)n1-c1ccc(O)cc1 | > 10 | 8 | > 10 | > 10 | 27 | 21 | – | –
7 | CN1CCN(c2nnc(-c3ccc(C(C)(C)C)cc3)n2-c2cccc(O)c2)CC1 | > 10 | 5 | > 10 | > 10 | 18 | 12 | – | –
8 | Oc1cccc(-n2cnnc2-c2ccc3ccccc3c2)c1 | > 10 | 48 | > 10 | 2.1 | 68 | 27 | > 4.76 | > 4.76
9 | CN(C)Cc1nnc(-c2cccc(C(C)(C)C)c2)n1-c1cccc(O)c1 | – | – | – | 2.6 | 65 | – | – | –
10 | Oc1cccc(-n2cnnc2-c2cccc(-c3ccccc3)c2)c1 | – | 84 | > 10 | – | 84 | 42 | 7.14 | > 71.4
11 | CN(C)c1nnc(-c2ccc3ccccc3c2)n1-c1cccc(O)c1 | > 10 | 48 | > 10 | 0.48 | 68 | 27 | > 20.8 | > 20.8
12 | CN(C)c1nnc(-c2cccc(-c3ccccc3)c2)n1-c1cccc(O)c1 | > 10 | 23 | > 10 | 0.15 | 86 | 8 | > 66.6 | > 66.6
13 | Oc1cccc(-n2cnnc2-c2ccc(-c3ccccc3)cc2)c1 | > 10 | 60 | > 10 | 1.5 | 75 | 46 | – | –
14 | CN(C)c1nnc(-c2cccc(C(C)(C)C)c2)n1-c1cccc(O)c1 | > 10 | 19 | > 10 | 1.05 | 76 | 6 | – | –
15 | CN(C)Cc1nnc(-c2ccc(C(C)(C)C)cc2)n1-c1cccc(O)c1 | – | – | > 10 | – | – | 9 | – | –
16 | CN(C)c1nnc(-c2ccc(C(C)(C)C)cc2)n1-c1cccc(O)c1 | 4 | 32 | > 10 | 0.05 | 94 | 6 | 80 | > 200
17 | CC(C)(C)c1ccc(-c2nncn2-c2cccc(O)c2)cc1 | > 10 | 16 | > 10 | 10 | 54 | 16 | – | –
18 | CN(C)c1nnc(-c2ccc(-c3ccccc3)cc2)n1-c1cccc(O)c1 | > 10 | 15 | > 10 | 0.13 | 82 | 11 | – | –
